Laboratory results as given in patent US9034921B2, “Diphenylmethane derivatives as SGLT2 inhibitors” (GREEN CROSS CORPORATION, priority 2011, dated 2015).

Each compound was assayed against human SGLT2 (Homo sapiens (Human), UniProt P31639) (assay: Inhibitory effects on human SGLT2 activities (14C-AMG uptake, sodium-dependent glucose transport assay)). Details: CHO cells stably expressing hSGLT2, 37° C., 2 h, single determinations.
Sequence of human SGLT2 (P31639 whole entry): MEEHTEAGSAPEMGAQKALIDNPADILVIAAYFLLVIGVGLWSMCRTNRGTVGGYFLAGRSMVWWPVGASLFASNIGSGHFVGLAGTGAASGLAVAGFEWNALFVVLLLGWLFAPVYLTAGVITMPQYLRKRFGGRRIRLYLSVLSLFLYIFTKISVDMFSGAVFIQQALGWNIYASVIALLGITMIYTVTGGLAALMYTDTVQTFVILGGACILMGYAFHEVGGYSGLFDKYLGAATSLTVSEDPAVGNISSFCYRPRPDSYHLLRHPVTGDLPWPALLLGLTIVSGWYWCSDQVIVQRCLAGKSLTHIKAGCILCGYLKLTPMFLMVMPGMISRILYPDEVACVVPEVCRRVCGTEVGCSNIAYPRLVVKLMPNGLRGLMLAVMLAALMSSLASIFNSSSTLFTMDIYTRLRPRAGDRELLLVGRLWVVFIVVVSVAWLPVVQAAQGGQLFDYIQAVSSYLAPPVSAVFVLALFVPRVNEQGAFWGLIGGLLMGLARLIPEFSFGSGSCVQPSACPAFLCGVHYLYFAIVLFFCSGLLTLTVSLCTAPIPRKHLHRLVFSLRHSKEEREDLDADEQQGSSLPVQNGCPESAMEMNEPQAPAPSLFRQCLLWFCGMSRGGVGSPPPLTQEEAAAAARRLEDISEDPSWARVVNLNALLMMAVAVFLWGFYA
Format: cell-based
Procedure, shortened: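 CHO cells stably expressing hSGLT2 were preincubated 10 min at 37 °C in choline (Na+-free) buffer, then exposed 2 h at 37 °C to compound in Na+ uptake buffer with 8 μM 14C-AMG and 1 mM unlabeled AMG. Radioactivity was scintillation counted; IC50 came from nonlinear regression.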
Work on `OC[C@H]1O[C@@H](c2ccc(Cl)c(Cc3ccc4ncccc4c3)c2)[C@H](O)[C@@H](O)[C@@H]1O` [Example E025, (2S,3R,4R,5S,6R)-2-(4-Chloro-3-(quinolin-6-ylmethyl)phenyl)-6-(hydroxymethyl)tetrahydro-2H-pyran-3,4,5-triol] yielded an IC50 of 1.85 nM. Work on `CCc1ccc(Cc2cc([C@@H]3O[C@H](CO)[C@@H](O)[C@H](O)[C@H]3O)c3c(c2Cl)OCCC3)cc1` [Example E023, (2S,3R,4R,5S,6R)-2-(8-Chloro-7-(4-ethylbenzyl)chroman-5-yl)-6-(hydroxymethyl)tetrahydro-2H-pyran-3,4,5-triol] yielded an IC50 of 0.753 nM. `CC(C)c1ccc(Cc2cc([C@@H]3O[C@H](CO)[C@@H](O)[C@H](O)[C@H]3O)c3c(c2Cl)OCO3)cc1` [Example E159, (2S,3R,4R,5S,6R)-2-(7-Chloro-6-(4-isopropylbenzyl)benzo[d][1,3]dioxol-4-yl)-6-(hydroxymethyl)tetrahydro-2H-pyran-3,4,5-triol] showed an IC50 of 0.872 nM. `CCOc1ccc(Cc2cc([C@@H]3O[C@H](CO)[C@@H](O)[C@H](O)[C@H]3O)c3c(c2C)OCC3)cc1` [Example E129, (2S,3R,4R,5S,6R)-2-(6-(4-Ethoxybenzyl)-7-methyl-2,3-dihydrobenzofuran-4-yl)-6-(hydroxymethyl)tetrahydro-2H-pyran-3,4,5-triol] was tested, and the IC50 was 1.28 nM. In the case of `OC[C@H]1O[C@@H](c2ccc(Cl)c(Cc3ccc4sccc4c3)c2)[C@H](O)[C@@H](O)[C@@H]1O` [Example E031, (2S,3R,4R,5S,6R)-2-(3-(Benzo[b]thiophen-5-ylmethyl)-4-chlorophenyl)-6-(hydroxymethyl)tetrahydro-2H-pyran-3,4,5-triol], the IC50 is reported as 0.865 nM. `CCc1ccc(Cc2cc([C@@H]3O[C@H](CO)[C@@H](O)[C@H](O)[C@H]3O)c3c(c2Cl)CC(C)S3)cc1` (stereo partly drawn) [Example E144, (2S,3R,4R,5S,6R)-2-(4-Chloro-5-(4-ethylbenzyl)-2-methyl-2,3-dihydrobenzo[b]thiophen-7-yl)-6-(hydroxymethyl)tetrahydro-2H-pyran-3,4,5-triol] gave an IC50 of 0.976 nM. Work on `CCOc1ccc(Cc2cc([C@@H]3O[C@H](CO)[C@@H](O)[C@H](O)[C@H]3O)c3c(c2Cl)OCC3OC)cc1` (stereo partly drawn) [Example E227, (2S,3R,4R,5S,6R)-2-(7-Chloro-6-(4-ethoxybenzyl)-3-methoxy-2,3-dihydrobenzofuran-4-yl)-6-(hydroxymethyl)-tetrahydro-2H-pyran-3,4,5-triol] yielded an IC50 of 8.99 nM. For `COc1ccc(Cc2cc([C@@H]3O[C@H](CO)[C@@H](O)[C@H](O)[C@H]3O)c3c(c2C)CCC3)cc1` [Example E007, (2R,3S,4R,5R,6S)-2-(Hydroxymethyl)-6-(6-(4-methoxybenzyl)-7-methyl-2,3-dihydro-1H-inden-4-yl)tetrahydro-2H-pyran-3,4,5-triol], the IC50 was 0.793 nM. `Cc1ccc([C@@H]2O[C@H](CO)[C@@H](O)[C@H](O)[C@H]2O)cc1Cc1ccc2c(c1)OCCCO2` [Example E030, (2S,3R,4R,5S,6R)-2-(3-((3,4-Dihydro-2H-benzo[b][1,4]dioxepin-7-yl)methyl)-4-methylphenyl)-6-(hydroxymethyl)tetrahydro-2H-pyran-3,4,5-triol] gave an IC50 of 9.62 nM. For `COc1cc(Cl)c(Cc2ccc3c(c2)OCCO3)cc1[C@@H]1O[C@H](SC)[C@@H](O)[C@H](O)[C@H]1O` [Example E095, (2S,3R,4R,5S,6R)-2-(4-Chloro-5-((2,3-dihydrobenzo[b][1,4]dioxin-6-yl)methyl)-2-methoxyphenyl)-6-(methylthio)-tetrahydro-2H-pyran-3,4,5-triol], the IC50 was 0.628 nM. With `CCc1ccc(Cc2cc([C@@H]3O[C@H](CO)[C@@H](O)[C@H](O)[C@H]3O)c3c(c2Cl)OCCO3)cc1` [Example E105, (2S,3R,4R,5S,6R)-2-(8-Chloro-7-(4-ethylbenzyl)-2,3-dihydrobenzo[b][1,4]dioxin-5-yl)-6-(hydroxymethyl)tetrahydro-2H-pyran-3,4,5-triol] the IC50 was 0.923 nM. `CCn1ncc2cc(Cc3cc([C@@H]4O[C@H](CO)[C@@H](O)[C@H](O)[C@H]4O)ccc3Cl)ccc21` [Example E037, (2S,3R,4R,5S,6R)-2-(4-Chloro-3-((1-ethyl-1H-indazol-5-yl)methyl)phenyl)-6-(hydroxymethyl)tetrahydro-2H-pyran-3,4,5-triol] showed an IC50 of 1.58 nM. In the case of `OC[C@H]1O[C@@H](c2cc(Cc3ccc(C4CC4)cc3)c(Cl)c3c2CCO3)[C@H](O)[C@@H](O)[C@@H]1O` [Example E172, (2S,3R,4R,5S,6R)-2-(7-Chloro-6-(4-cyclopropylbenzyl)-2,3-dihydrobenzofuran-4-yl)-6-(hydroxymethyl)tetrahydro-2H-pyran-3,4,5-triol], the IC50 is reported as 0.463 nM. `CCOc1ccc(Cc2cc([C@@H]3O[C@H](C(C)O)[C@@H](O)[C@H](O)[C@H]3O)c3c(c2Cl)OCC3)cc1` (stereo partly drawn) [Example E127, (2S,3R,4R,5S,6R)-2-(7-Chloro-6-(4-ethoxybenzyl)-2,3-dihydrobenzofuran-4-yl)-6-(1-hydroxyethyl)tetrahydro-2H-pyran-3,4,5-triol] was tested, and the IC50 was 1.35 nM. For `OC[C@H]1O[C@@H](c2cc(Cc3ccc(C4CC4)cc3)c(Cl)c3c2OCO3)[C@H](O)[C@@H](O)[C@@H]1O` [Example E158, (2S,3R,4R,5S,6R)-2-(7-Chloro-6-(4-cyclopropylbenzyl)benzo[d][1,3]dioxol-4-yl)-6-(hydroxymethyl)tetrahydro-2H-pyran-3,4,5-triol], the IC50 was 0.366 nM. `COc1ccc(Cc2cc([C@@H]3O[C@H](OC)[C@@H](O)[C@H](O)[C@H]3O)c3c(c2Br)CCC3)cc1` [Example E097, (2S,3R,4R,5S,6S)-2-(7-Bromo-6-(4-methoxybenzyl)-2,3-dihydro-1H-inden-4-yl)-6-methoxy-tetrahydro-2H-pyran-3,4,5-triol] gave an IC50 of 3.83 nM. `COc1ccc(Cc2cc([C@@H]3O[C@H](CO)[C@@H](O)[C@H](O)[C@H]3O)c3c(c2F)CCC3)cc1` [Example E006, (2S,3R,4R,5S,6R)-2-(7-Fluoro-6-(4-methoxybenzyl)-2,3-dihydro-1H-inden-4-yl)-6-(hydroxymethyl)tetrahydro-2H-pyran-3,4,5-triol] was tested, and the IC50 was 2.03 nM. For `COc1ccc(Cc2cc([C@@H]3O[C@H](CO)[C@@H](O)[C@H](O)[C@H]3O)c3c(c2Cl)SCCC3)cc1` [Example E242, (2S,3R,4R,5S,6R)-2-(8-Chloro-7-(4-methoxybenzyl)thiochroman-5-yl)-6-(hydroxymethyl)tetrahydro-2H-pyran-3,4,5-triol], the IC50 was 0.552 nM. `CNc1ccc(Cc2cc([C@@H]3O[C@H](CO)[C@@H](O)[C@H](O)[C@H]3O)c3c(c2Cl)OCC3)cc1` [Example E141, (2S,3R,4R,5S,6R)-2-(7-Chloro-6-(4-(methylamino)benzyl)-2,3-dihydrobenzofuran-4-yl)-6-(hydroxymethyl)tetrahydro-2H-pyran-3,4,5-triol 2,2,2-trifluoroacetate] was tested, and the IC50 was 2.82 nM. Compound `OC[C@H]1O[C@@H](c2ccc(Cl)c(Cc3ccc4c(c3)OC=CO4)c2)[C@H](O)[C@@H](O)[C@@H]1O` [Example E069] has an IC50 of 0.788 nM. `CCOc1ccc(Cc2cc([C@@H]3O[C@H](CO)[C@@H](O)[C@H](O)[C@H]3O)c3c(c2Cl)CCO3)cc1` [Example E022, (2S,3R,4R,5S,6R)-2-(4-Chloro-5-(4-ethoxybenzyl)-2,3-dihydrobenzofuran-7-yl)-6-(hydroxymethyl)tetrahydro-2H-pyran-3,4,5-triol] was tested, and the IC50 was 0.833 nM. `CN(C)c1ccc(Cc2cc([C@@H]3O[C@H](CO)[C@@H](O)[C@H](O)[C@H]3O)c3c(c2Cl)CCO3)cc1` [Example E197, (2S,3R,4R,5S,6R)-2-(4-Chloro-5-(4-(dimethylamino)benzyl)-2,3-dihydrobenzofuran-7-yl)-6-(hydroxymethyl)tetrahydro-2H-pyran-3,4,5-triol] gave an IC50 of 3.22 nM. With `CS[C@H]1O[C@@H](c2cc(Cc3ccc4c(c3)OCCO4)c(Cl)cc2O)[C@H](O)[C@@H](O)[C@@H]1O` [Example E098, (2S,3R,4R,5S,6R)-2-(4-Chloro-5-((2,3-dihydrobenzo[b][1,4]dioxin-6-yl)methyl)-2-hydroxyphenyl)-6-(methylthio)-tetrahydro-2H-pyran-3,4,5-triol] the IC50 was 0.454 nM. `Cc1ccc([C@@H]2O[C@H](CO)[C@@H](O)[C@H](O)[C@H]2O)cc1Cc1ccc2c(c1)OCCO2` [Example E054, (2S,3R,4R,5S,6R)-2-(3-((2,3-Dihydrobenzo[b][1,4]dioxin-6-yl)methyl)-4-methylphenyl)-6-(hydroxymethyl)-tetrahydro-2H-pyran-3,4,5-triol] was tested, and the IC50 was 2.02 nM. Work on `OC[C@H]1O[C@@H](c2ccc(Cl)c(Cc3ccc(N4CCCC4)cc3)c2)[C@H](O)[C@@H](O)[C@@H]1O` [Example E221] yielded an IC50 of 2.17 nM. Work on `COc1ccc(Cc2cc([C@@H]3O[C@H](CO)[C@@H](O)[C@H](O)[C@H]3O)c3c(c2C(F)F)CCC3)cc1` [Example E237, (2S,3R,4R,5S,6R)-2-(7-(Difluoromethyl)-6-(4-methoxybenzyl)-2,3-dihydro-1H-inden-4-yl)-6-(hydroxymethyl)tetrahydro-2H-pyran-3,4,5-triol] yielded an IC50 of 0.734 nM. `CC(O)c1ccc(Cc2cc([C@@H]3O[C@H](CO)[C@@H](O)[C@H](O)[C@H]3O)c3c(c2Cl)OCC3)cc1` (stereo partly drawn) [Example E169, (2S,3R,4R,5S,6R)-2-(7-Chloro-6-(4-(1-hydroxyethyl)benzyl)-2,3-dihydrobenzofuran-4-yl)-6-(hydroxymethyl)tetrahydro-2H-pyran-3,4,5-triol] was tested, and the IC50 was 2.12 nM. Work on `OC[C@H]1O[C@@H](c2cc(Cc3ccc4c(c3)OCCO4)c(Cl)c3c2OCCO3)[C@H](O)[C@@H](O)[C@@H]1O` [Example E103, (2S,3R,4R,5S,6R)-2-(8-Chloro-7-((2,3-dihydrobenzo[b][1,4]dioxin-6-yl)methyl)-2,3-dihydrobenzo[b][1,4]dioxin-5-yl)-6-(hydroxymethyl)tetrahydro-2H-pyran-3,4,5-triol] yielded an IC50 of 1.82 nM. With `COc1ccc(Cc2cc([C@@H]3O[C@H](CO)[C@@H](O)[C@H](O)[C@H]3O)c3c(c2Cl)OCC3)cc1` [Example E019, (2S,3R,4R,5S,6R)-2-(7-Chloro-6-(4-methoxybenzyl)-2,3-dihydrobenzofuran-4-yl)-6-(hydroxymethyl)tetrahydro-2H-pyran-3,4,5-triol] the IC50 was 1.53 nM.
